Experimental data published in patent US12116574B2, “Anti-inflammatory treatment via inhibition of endothelial cell kinesin light chain 1, variant 1 (KLC1C)” (Northwestern University, priority 2016, dated 2024).
Entries after “also recorded” stand apart in the source; their conditions may differ.

Assays:
Type in all cases: cell-based, human
HUVEC = assay: Standard one hour Transendothelial Migration (TEM) assay on transduced HUVEC
Protocol: (§1) 293A cells were grown on 100 mm dishes to 70-90% confluency and then transfected with adenoviral constructs using Lipofectamine 2000 for delivery. Amplified virus that expressed KHC and KLC knockdown and rescue constructs was purified and used to in transduction of HUVEC for knockdown and rescue experiments (VIRAPOWER Adenoviral Expression System).
The TEM assay is a quantitative assay designed to assess, using large numbers of transmigration events (more than 300 per variable tested), the effect of various treatments such as knocking down Kinesin-1, on the process of transmigration. As routinely performed in our lab (refs. 19,21; herein incorporated by reference in their entireties), peripheral blood mononuclear cells (PBMC, to assess monocyte transmigration) from healthy volunteers are purified on a Ficoll density gradient and then washed in Hanks' buffered saline solution (HBSS) plus 0.1% human serum albumin. Following this wash, they are resuspended in Medium 199 plus 0.1% human serum albumin. 2×10^6 cells are added to confluent TNF-α activated (10 ng/mL, >4 hrs) human umbilical vein endothelial cell (HUVEC) monolayers grown on hydrated collagen gels and incubated for 1 h at 37° C. in a CO2 incubator (ref. 22; herein incorporated by reference in its entirety). This is enough time to allow maximum TEM of control cells (˜90%).
To assess the role of microtubule motors in leukocyte TEM, control and experimentally treated HUVEC are compared side by side in this assay. The co-culture is washed with cold PBS and fixed overnight with 2.5% glutaraldehyde in 0.1 M sodium cacodylate buffer, pH 7.4. TEM is quantitated by Nomarski optics (ref. 21; herein incorporated by reference in its entirety). […] Monocytes are scored in each of several random fields for each monolayer until at least 100 are counted, with 3 replicate monolayers for each condition for a total of over 300 cells per variable tested. To avoid unintentional bias, all cells in the field are counted. Data are expressed as the percent of total leukocytes (attached plus transmigrated) that have transmigrated.

[1] = system: lateral border recycling compartment (LBRC) in HUVEC; assay: Targeted Recycling assay (LBRC recruitment to transmigrating leukocytes); conditions: transduced HUVEC, 8.5 minutes
Protocol: The Targeted Recycling assay determines whether the LBRC has been recruited to transmigrating leukocytes. Targeted recycling was performed as described previously (ref 5; herein incorporated by reference in its entirety). HUVEC monolayers are incubated with an Fab fragment of P1.1 mAb for 1 h at 37° C. in a CO2 incubator. […] HUVEC are then put on ice and washed with PBS to remove any free unbound Fab, followed by an incubation with an excess of F(ab′)2 fragment of unlabeled goat anti-mouse IgG on ice for 1 h. This saturably binds all of the Fab that is present on the surface of the endothelial junction, but will not enter the LBRC at this temperature. Free antibody is washed away and 2×10^6 PBMCs mixed with Alexa-568-conjugated F(ab′)2 fragment of the same goat […] transmigration to begin. Cells are then put on ice and washed with ice-cold PBS, followed by fixation in 2% paraformaldehyde for 10 min at room temperature.
In this procedure, only PECAM that was originally in the LBRC and recycled to the surface during the transmigration period will be labeled with the fluorescent secondary antibody, since it was protected from the unlabeled secondary antibody during the incubation on ice. The synchronized transmigration for a short time (8 minutes) catches leukocytes early in the act of transmigration before significant constitutive recycling and a corresponding increase in the staining of uninvolved junction occurs.
Confocal fluorescence microscopy is used to image the targeted recycling events. Leukocytes are identified with fluorescently conjugated mAb against CD18 (IB4). […] The number of monocytes in contact with the endothelial monolayer at cell junctions was assessed, and of those, it was determined how many are contacted by membrane from the LBRC. The intensity of fluorescent Goat-anti-mouse mAb was measured to quantify enrichment of recycling LBRC around transmigrating leukocytes. One-pixel-wide lines are drawn along the area surrounding the site of diapedesis. The mean fluorescence intensity in contact with the leukocyte is divided by the average intensity of constitutively recycled PECAM at the adjacent cell border to calculate LBRC enrichment around transmigrating leukocytes. Multiple monolayers were examined until at least one hundred transmigration events are observed for each variable tested. To avoid unintentional bias each leukocyte in contact with the endothelial border is scored, whether or not it has initiated TEM. […] Image processing and quantification of data are performed using Volocity and ImageJ (NIH) image processing software.

Kinesin-1 = assay: Western Blot of Kinesin-1 in virally-transduced HUVEC; conditions: Kinesin-1 shRNA plus mCherry-tagged rescue construct
Protocol: as §1
HUVEC were harvested for SDS-PAGE by washing with PBS and adding sample buffer. DNA was sheared by passing through a 27 G needle 10 times and samples were heated to 100° C. for 5 minutes. Samples were separated on 8% polyacrylamide gels and transferred onto polyvinyldifluoride membranes before blocking with 5% milk in PBS with 0.05% Tween and probing with primary antibodies. Blots were incubated with horseradish peroxidase-conjugated secondary antibodies in 5% milk in PBS with 0.05% Tween, then washed, and detected using chemiluminescence and exposure to X-ray film.

Substance	transmigration (TEM) of monocytes (HUVEC)	LBRC enrichment around monocytes at endothelial junctions [1]	targeted recycling of the LBRC [1]	targeted recycling of the LBRC ([1]; listed as KLC1 Variant 1 shRNA)	Kinesin-1 expression after rescue of knockdown (Kinesin-1)
KLC1 variants 2 & 3 shRNA: shRNA targeting KLC1 isoform variants 2 (NM_182923.3) and 3 (NM_001130107.1); 5′-GCATAGGACATGATACTAA-3′ (SEQ ID NO: 12) (the letters are possibly those of the target site)	not				
KLC1 variant 1 shRNA: shRNA targeting 3′ noncoding region of KLC1 isoform variant 1 (NM_005552.4); 5′-TGTATTTGTGTCTTTCTAA-3′ (SEQ ID NO: 11) (the letters are possibly those of the target site)	reduced; also recorded: blocks	significantly diminished	significantly diminished	significantly decreased	
Kinesin-1 rescue construct: KHC rescue construct with silent point mutations in the targeted sequences and in-frame mCherry tag at the 3′ end	rescued		restored targeted recycling to control levels		rescued
